Drawing on ChEMBL document CHEMBL1144544, “Solid-phase synthesis of a combinatorial library of dihydroceramide analogues and its activity in human alveolar epithelial cells” (Bioorg Med Chem, 2007), this text covers IC50 and Activity for 28 compounds.

In series [1] the test system is A549. In words: Cytotoxicity against human A549 cells after 72 hrs by MTT test. In kind it is cell-based. The following applies: A549, 72 h. (In general: Tetrazolium dyes change colour on reduction, which living cells bring about.)
Series [2] has as its system A549. Briefly: Cell cycle arrest in human A549 cells by accumulation at G0/G1 phase after 72 hrs relative to control by flow cytometry. In kind it is functional. Details: concentration or dose not given beside the values. For orientation: A flow cytometer gives signals particle by particle.
In series [3] the test system is A549. Briefly: Cell cycle arrest in human A549 cells by accumulation at G2 phase after 72 hrs relative to control by flow cytometry. It is filed as functional. The arrangement: concentration or dose not given beside the values.
Series [4] has as its system A549. In words: Cell cycle arrest in human A549 cells by accumulation at S phase after 72 hrs relative to control by flow cytometry. The arrangement: concentration or dose not given beside the values. In kind it is functional.
The subject of series [5] is A549. In words: Cytotoxicity against human A549 cells at 1 mM after 72 hrs by MTT test. In kind it is cell-based. The note with it: a549, 72 h, 1000 µM.
Series [6] has as its system A549. Briefly: Cell death of human A549 cells assessed as increase in number of apoptotic cells by annexin V and propidium iodide staining by flow cytometry. It is filed as functional, cell-based.
The test system of series [7] is A549. In words: Cytotoxicity against human A549 cells upto 1 mM in presence of 10% FBS after 72 hrs by MTT test. The note with it: a549, 72 h. It is filed as cell-based.
For series [8], the system named is A549. In words: Cytotoxicity against human A549 cells in presence of 10% FBS after 72 hrs by MTT test. It is filed as cell-based. The note with it: a549, 72 h.
The subject of series [9] is A549. Briefly: Cytotoxicity against human A549 cells upto 1 mM in presence of <=5% FBS after 72 hrs by MTT test. In kind it is cell-based. The note with it: a549, 72 h.

Activity calls are given as the source filed them. The calls are words filed in the database; no cut-off is given here.

Consider `COc1ccc(CC(=O)N[C@@H](CO)C(C)O)cc1OC` (some centres not stated), for which half-maximal inhibition in the series on A549 [1] (IC50) was put at 410 µM.

As for `CCCCCCCCCCCCC(O)[C@H](CO)NC(=O)Cc1ccc(OC)c(OC)c1` (some centres not stated), the Activity in the series with A549 [2] is 86.5%; in the series on A549 [3], 7%; in the series with A549 [4], 5.4%. Also, the IC50 – broadly, the midpoint of a concentration-inhibition curve – with A549 [1] is 20 µM.

For `CC(C)CC(=O)N[C@@H](CO)C(O)c1ccccc1` (some centres not stated), the Activity result in the series with A549 [5] is recorded as “Non-toxic”.

On to `CCCCCCCCCCCCCCC[C@H](O)[C@H](CO)NC(=O)c1ccc(CCCCCCC)cc1`, for which the figures for the Activity in the series on A549 [2], with A549 [3] and in the series on A549 [4] were 83.1%, 5.4% and 11.5%, respectively. This compound also returned an IC50 in the series with A549 [1] of 108 µM. For the same compound, the outcome in the series on A549 [6] was Active.

In the case of `CCCCCCCCC(O)[C@H](CO)NC(=O)Cc1ccc(OC)c(OC)c1` (some centres not stated), the values for the Activity in the series with A549 [2], with A549 [3] and in the series on A549 [4] were 84%, 5.5% and 10.5%, respectively.

On to `CC(O)[C@H](CO)NC(=O)c1ccc2ccccc2c1` (some centres not stated), for which the Activity entry in the series with A549 [5] is listed as “Non-toxic”.

For `CCCCCCCCCCCCCCC[C@@H](O)[C@H](CO)NC(=O)CCCCC`, the Activity entry with A549 [7] is “Not Active”.

Turning to `CCCCCCCCCCCCC(O)[C@H](CO)NC(=O)CC(C)C` (some centres not stated), the Activity worked out at 89.8% with A549 [2], 4.4% in the series with A549 [3] and 5.2% with A549 [4].

Take `CCCCCCCCC(O)[C@H](CO)NC(=O)c1ccccc1` (some centres not stated): the Activity in the series on A549 [2] amounted to 89.6%; with A549 [3], 2%; in the series with A549 [4], 8.4%.

In turn, `O=C(N[C@@H](CO)C(O)c1ccccc1)c1ccccc1` (some centres not stated) registered an IC50 in the series on A549 [1] of 689 µM.

Turning to `CCCCCCCCCCCCC/C=C/[C@@H](O)[C@H](CO)NC(=O)CCCCC`, the IC50 with A549 [1] came to 35 µM. The Activity result is “Dose-dependent effect” in the series on A549 [8] and “Non-toxic” in the series with A549 [9].

Consider `CCCCCCC(O)[C@H](CO)NC(=O)CC(C)C` (some centres not stated), for which the IC50 in the series with A549 [1] stood at 302 µM.

As for `CCCCCCCCCCCCCCC[C@@H](O)[C@H](CO)NC(=O)c1ccc(CCCCCCC)cc1`, in the series on A549 [6], the outcome was inactive.

As to `CCCCCCCc1ccc(C(=O)N[C@@H](CO)C(O)c2ccccc2)cc1` (some centres not stated), the IC50 in the series with A549 [1] is 20 µM.

Consider `CCCCCCCCCCCCC(O)[C@H](CO)NC(=O)c1ccc(CCCCCCC)cc1` (some centres not stated), for which the Activity was found to be 88.2% in the series with A549 [2], 4.4% in the series on A549 [3] and 7.4% in the series on A549 [4].

Turning to `CCCCCCCCC(O)[C@H](CO)NC(=O)CCC1CCCC1` (some centres not stated), the Activity with A549 [2] is reported as 94.4%; with A549 [3], 2.2%; with A549 [4] it was 3.4%.

As for `CCCCCCCCC(O)[C@H](CO)NC(=O)c1ccc(CCCCCCC)cc1` (some centres not stated), the Activity in the series on A549 [2] is reported as 92.6%; in the series on A549 [3] it was 4%; with A549 [4], 3.4%. The compound also yielded an IC50 in the series with A549 [1] of 20 µM. For the same compound, the result in the series with A549 [6] was Active.

As for `CC(O)[C@H](CO)NC(=O)c1ccccc1` (some centres not stated), in the series on A549 [5], the Activity result is recorded as “Non-toxic”.

For `O=C(N[C@@H](CO)C(O)c1ccccc1)c1ccc2ccccc2c1` (some centres not stated), the IC50 with A549 [1] amounted to 580 µM.

With `O=C(CCC1CCCC1)N[C@@H](CO)C(O)c1ccccc1` (some centres not stated), inhibition with A549 [1] was half-maximal at 597 µM (IC50).

Turning to `CCCCCCCc1ccc(C(=O)N[C@@H](CO)C(O)CCCCCC)cc1` (some centres not stated), the values for the Activity in the series with A549 [2], in the series on A549 [3] and in the series with A549 [4] were 86.5%, 5.4% and 8.1%, respectively. The compound also came in with an IC50 with A549 [1] of 20 µM.

`CCCCCCC(O)[C@H](CO)NC(=O)c1ccccc1` (some centres not stated): it took 290 µM to reach half-maximal inhibition in the series on A549 [1] (IC50).

As to `CC(O)[C@H](CO)NC(=O)CCC1CCCC1` (some centres not stated), the Activity result in the series with A549 [5] is on record as “Non-toxic”.

Consider `CCCCCCCCC(O)[C@H](CO)NC(=O)c1ccc2ccccc2c1` (some centres not stated), for which the Activity with A549 [2] came out at 91.2%; in the series on A549 [3], 3.4%; in the series with A549 [4] it was 5.4%.

`CCCCCCCCCCCCC(O)[C@H](CO)NC(=O)c1ccccc1` (some centres not stated): the Activity in the series on A549 [2] was 83%; with A549 [3], 4.2%; in the series on A549 [4], 12.8%.

With `CC(C)CC(=O)N[C@@H](CO)C(C)O` (some centres not stated), the Activity entry in the series on A549 [5] is reported as “Non-toxic”.

For the compound `CCCCCCCCC(O)[C@H](CO)NC(=O)CC(C)C` (some centres not stated), the Activity in the series on A549 [2] amounted to 84.5%; with A549 [3], 5%; with A549 [4], 10.5%.

For the compound `CCCCCCCCCCCCC(O)[C@H](CO)NC(=O)c1ccc2ccccc2c1` (some centres not stated), the Activity in the series on A549 [2] worked out at 90.4%; in the series with A549 [3], 2.2%; in the series on A549 [4], 7.4%.
